Laboratory results: US7612064B2, “Sulfopyrroles” (Takeda Pharmaceutical Company Limited, priority 2003, dated 2009)

Tests used:
[1] = tested on: HeLa; experiment: MTS proliferation assay; assay type: cell-based, human; conditions: 72 h
Procedure, shortened: (§1)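 Cells were exposed for 72 h under culture conditions to test compounds at final concentrations of 10, 3, 1 and 0.3 μM, added in complete medium with at most 5% DMSO. MTS reagent was then added for a further 3 h, and absorbance was read at 492 nm.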

[2] = tested on: Jurkat; experiment: MTS proliferation assay; assay type: cell-based, human; conditions: 72 h
Procedure, shortened: as §1

[3] = Hoechst 33342 nuclear staining; assay type: cell-based; conditions: for Hoechst 33342 nuclear staining score, H460: H460 cells; for Hoechst 33342 nuclear staining score, HeLa: HeLa cells; for Hoechst 33342 nuclear staining score, Jily: Jily cells; for Hoechst 33342 nuclear staining score, Jurkat: Jurkat cells; for Hoechst 33342 nuclear staining score, MRC5: MRC5 cells;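 on all read-outs here: apoptotic nuclei scored 0 none 1 weak under 50% of cells 2 strong over 50% of cells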
Procedure, shortened: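 After a further 30 min incubation, plates were inspected on a standard inverted fluorescence microscope. The fraction of apoptotic nuclei and other apoptosis-specific morphology were scored as 0 for no activity, 1 for weak activity in less than 50% of the cells, and 2 for strong activity in more than 50% of the cells.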

[4] = tested on: Jily; experiment: MTS proliferation assay; assay type: cell-based; conditions: 72 h
Procedure, shortened: as §1

[5] = tested on: MRC5; experiment: MTS proliferation assay; assay type: cell-based; conditions: MRC5, 72 h
Procedure, shortened: as §1

COc1cc(-c2cc(-c3cccnc3)cn2S(=O)(=O)c2ccc(F)cc2)cc(OC)c1OC [Example 80]
IC50 [1]: > 1000 nM | IC50 [2]: > 1000 nM | Hoechst 33342 nuclear staining score, H460 ([3]; conc 0.1): 0 | Hoechst 33342 nuclear staining score, H460 ([3]; conc 0.3): 0 | Hoechst 33342 nuclear staining score, H460 ([3]; conc 1): 0 | Hoechst 33342 nuclear staining score, H460 ([3]; conc 3): 0 | Hoechst 33342 nuclear staining score, HeLa ([3]; conc 0.1): 0 | Hoechst 33342 nuclear staining score, HeLa ([3]; conc 0.3): 0 | Hoechst 33342 nuclear staining score, HeLa ([3]; conc 1): 0 | Hoechst 33342 nuclear staining score, HeLa ([3]; conc 3): 0 | Hoechst 33342 nuclear staining score, Jily ([3]; conc 0.1): 0 | Hoechst 33342 nuclear staining score, Jily ([3]; conc 0.3): 0 | Hoechst 33342 nuclear staining score, Jily ([3]; conc 1): 0 | Hoechst 33342 nuclear staining score, Jily ([3]; conc 3): 2 (strong activity comprising more than 50% of the cells) | Hoechst 33342 nuclear staining score, Jurkat ([3]; conc 0.1): 0 | Hoechst 33342 nuclear staining score, Jurkat ([3]; conc 0.3): 0 | Hoechst 33342 nuclear staining score, Jurkat ([3]; conc 1): 0 | Hoechst 33342 nuclear staining score, Jurkat ([3]; conc 3): 2 (strong activity comprising more than 50% of the cells) | Hoechst 33342 nuclear staining score, MRC5 ([3]; conc 0.1): 0 | Hoechst 33342 nuclear staining score, MRC5 ([3]; conc 0.3): 0 | Hoechst 33342 nuclear staining score, MRC5 ([3]; conc 1): 0 | Hoechst 33342 nuclear staining score, MRC5 ([3]; conc 3): 0 | Hoechst 33342 nuclear staining score, PBLs ([3]; conc 0.1): 0 | Hoechst 33342 nuclear staining score, PBLs ([3]; conc 0.3): 0 | Hoechst 33342 nuclear staining score, PBLs ([3]; conc 1): 0 | Hoechst 33342 nuclear staining score, PBLs ([3]; conc 3): 0 | IC50 [4]: > 1000 nM | IC50 [5]: > 1000 nM

COc1ccc(S(=O)(=O)n2cc(-c3ccc(N)nc3)cc2-c2ccccc2OC)cc1 [Example 103]
IC50 [1]: > 1000 nM | IC50 [2]: < 1000 nM | Hoechst 33342 nuclear staining score, H460 ([3]; conc 0.1): 0 | Hoechst 33342 nuclear staining score, H460 ([3]; conc 0.3): 0 | Hoechst 33342 nuclear staining score, H460 ([3]; conc 1): 0 | Hoechst 33342 nuclear staining score, H460 ([3]; conc 3): 2 (strong activity comprising more than 50% of the cells) | Hoechst 33342 nuclear staining score, HeLa ([3]; conc 0.1): 0 | Hoechst 33342 nuclear staining score, HeLa ([3]; conc 0.3): 0 | Hoechst 33342 nuclear staining score, HeLa ([3]; conc 1): 0 | Hoechst 33342 nuclear staining score, HeLa ([3]; conc 3): 2 (strong activity comprising more than 50% of the cells) | Hoechst 33342 nuclear staining score, Jily ([3]; conc 0.1): 0 | Hoechst 33342 nuclear staining score, Jily ([3]; conc 0.3): 0 | Hoechst 33342 nuclear staining score, Jily ([3]; conc 1): 2 (strong activity comprising more than 50% of the cells) | Hoechst 33342 nuclear staining score, Jily ([3]; conc 3): 2 (strong activity comprising more than 50% of the cells) | Hoechst 33342 nuclear staining score, Jurkat ([3]; conc 0.1): 0 | Hoechst 33342 nuclear staining score, Jurkat ([3]; conc 0.3): 0 | Hoechst 33342 nuclear staining score, Jurkat ([3]; conc 1): 2 (strong activity comprising more than 50% of the cells) | Hoechst 33342 nuclear staining score, Jurkat ([3]; conc 3): 2 (strong activity comprising more than 50% of the cells) | Hoechst 33342 nuclear staining score, MRC5 ([3]; conc 0.1): 0 | Hoechst 33342 nuclear staining score, MRC5 ([3]; conc 0.3): 0 | Hoechst 33342 nuclear staining score, MRC5 ([3]; conc 1): 0 | Hoechst 33342 nuclear staining score, MRC5 ([3]; conc 3): 1 (weak activity comprising less than 50% of the cells) | Hoechst 33342 nuclear staining score, PBLs ([3]; conc 0.1): 0 | Hoechst 33342 nuclear staining score, PBLs ([3]; conc 0.3): 0 | Hoechst 33342 nuclear staining score, PBLs ([3]; conc 1): 0 | Hoechst 33342 nuclear staining score, PBLs ([3]; conc 3): 0 | IC50 [4]: < 1000 nM | IC50 [5]: > 1000 nM

COc1cc(-c2cc(-c3cncc(C(=O)NC(C)CO)c3)cn2S(=O)(=O)c2ccc(C)cc2)cc(OC)c1OC.Cl (stereo not shown) [Example 63]
IC50 [1]: < 1000 nM | IC50 [2]: < 1000 nM | Hoechst 33342 nuclear staining score, H460 ([3]; conc 0.1): 0 | Hoechst 33342 nuclear staining score, H460 ([3]; conc 0.3): 0 | Hoechst 33342 nuclear staining score, H460 ([3]; conc 1): 0 | Hoechst 33342 nuclear staining score, H460 ([3]; conc 3): 0 | Hoechst 33342 nuclear staining score, HeLa ([3]; conc 0.1): 0 | Hoechst 33342 nuclear staining score, HeLa ([3]; conc 0.3): 0 | Hoechst 33342 nuclear staining score, HeLa ([3]; conc 1): 0 | Hoechst 33342 nuclear staining score, HeLa ([3]; conc 3): 2 (strong activity comprising more than 50% of the cells) | Hoechst 33342 nuclear staining score, Jily ([3]; conc 0.1): 0 | Hoechst 33342 nuclear staining score, Jily ([3]; conc 0.3): 0 | Hoechst 33342 nuclear staining score, Jily ([3]; conc 1): 0 | Hoechst 33342 nuclear staining score, Jily ([3]; conc 3): 0 | Hoechst 33342 nuclear staining score, Jurkat ([3]; conc 0.1): 0 | Hoechst 33342 nuclear staining score, Jurkat ([3]; conc 0.3): 0 | Hoechst 33342 nuclear staining score, Jurkat ([3]; conc 1): 2 (strong activity comprising more than 50% of the cells) | Hoechst 33342 nuclear staining score, Jurkat ([3]; conc 3): 2 (strong activity comprising more than 50% of the cells) | Hoechst 33342 nuclear staining score, MRC5 ([3]; conc 0.1): 0 | Hoechst 33342 nuclear staining score, MRC5 ([3]; conc 0.3): 0 | Hoechst 33342 nuclear staining score, MRC5 ([3]; conc 1): 0 | Hoechst 33342 nuclear staining score, MRC5 ([3]; conc 3): 0 | Hoechst 33342 nuclear staining score, PBLs ([3]; conc 0.1): 0 | Hoechst 33342 nuclear staining score, PBLs ([3]; conc 0.3): 0 | Hoechst 33342 nuclear staining score, PBLs ([3]; conc 1): 0 | Hoechst 33342 nuclear staining score, PBLs ([3]; conc 3): 0 | IC50 [4]: < 1000 nM | IC50 [5]: < 1000 nM

COc1ccc(S(=O)(=O)n2cc(-c3cncc(C(N)=O)c3)cc2-c2ccc(OC)cc2OC)cc1 [Example 106]
IC50 [1]: > 1000 nM | IC50 [2]: > 1000 nM | Hoechst 33342 nuclear staining score, H460 ([3]; conc 0.1): 0 | Hoechst 33342 nuclear staining score, H460 ([3]; conc 0.3): 0 | Hoechst 33342 nuclear staining score, H460 ([3]; conc 1): 1 (weak activity comprising less than 50% of the cells) | Hoechst 33342 nuclear staining score, H460 ([3]; conc 3): 2 (strong activity comprising more than 50% of the cells) | Hoechst 33342 nuclear staining score, HeLa ([3]; conc 0.1): 0 | Hoechst 33342 nuclear staining score, HeLa ([3]; conc 0.3): 0 | Hoechst 33342 nuclear staining score, HeLa ([3]; conc 1): 1 (weak activity comprising less than 50% of the cells) | Hoechst 33342 nuclear staining score, HeLa ([3]; conc 3): 2 (strong activity comprising more than 50% of the cells) | Hoechst 33342 nuclear staining score, Jily ([3]; conc 0.1): 0 | Hoechst 33342 nuclear staining score, Jily ([3]; conc 0.3): 0 | Hoechst 33342 nuclear staining score, Jily ([3]; conc 1): 1 (weak activity comprising less than 50% of the cells) | Hoechst 33342 nuclear staining score, Jily ([3]; conc 3): 2 (strong activity comprising more than 50% of the cells) | Hoechst 33342 nuclear staining score, Jurkat ([3]; conc 0.1): 0 | Hoechst 33342 nuclear staining score, Jurkat ([3]; conc 0.3): 0 | Hoechst 33342 nuclear staining score, Jurkat ([3]; conc 1): 2 (strong activity comprising more than 50% of the cells) | Hoechst 33342 nuclear staining score, Jurkat ([3]; conc 3): 2 (strong activity comprising more than 50% of the cells) | Hoechst 33342 nuclear staining score, MRC5 ([3]; conc 0.1): 0 | Hoechst 33342 nuclear staining score, MRC5 ([3]; conc 0.3): 0 | Hoechst 33342 nuclear staining score, MRC5 ([3]; conc 1): 0 | Hoechst 33342 nuclear staining score, MRC5 ([3]; conc 3): 1 (weak activity comprising less than 50% of the cells) | Hoechst 33342 nuclear staining score, PBLs ([3]; conc 0.1): 0 | Hoechst 33342 nuclear staining score, PBLs ([3]; conc 0.3): 0 | Hoechst 33342 nuclear staining score, PBLs ([3]; conc 1): 0 | Hoechst 33342 nuclear staining score, PBLs ([3]; conc 3): 0 | IC50 [4]: > 1000 nM | IC50 [5]: > 1000 nM
